Experimental data published in patent US20100144725A1, “PESTICIDAL COMBINATIONS” (SYNGENTA CROP PROTECTION, INC., priority 2007, published 2010).

How the values were obtained:
Pyrenophora graminea = assay: Fungal growth assay, Pyrenophora graminea (leaf stripe of barley), microtiter plate, photometric; format: cell-based; conditions: 72 hrs
Experimental: The action to be expected E for a given active ingredient combination obeys the so-called COLBY formula and can be calculated as follows (COLBY, S. R. “Calculating synergistic and antagonistic responses of herbicide combination”. Weeds, Vol. 15, pages 20-22; 1967): If the action actually observed (O) is greater than the expected action (E), then the action of the combination is super-additive, i.e. there is a synergistic effect. Inhibiting of fungal growth of the following fungi are carried out by fungal growth assays (detailed below). Pyrenophora […] stripe of barley): Conidia of the fungus from cryogenic storage are directly mixed into nutrient broth (PDB potato dextrose broth). After placing a (DMSO) solution of the test compounds into a microtiter plate (96-well format) the nutrient broth containing the fungal spores is added. The test plates are incubated at 24 C and the inhibition of growth is measured photometrically after 72 hrs. The fungicide interactions in the combinations are calculated according to COLBY method, where A is thiabendazole and B is a mixture of tebuconazole and azoxystrobin in a mass ratio of 2:1. The results for A & B solo are shown in Table below and those for the combinations in a range of ratios in Table 1.

Rhizoctonia solani = assay: Fungal growth assay, Rhizoctonia solani (foot rot, damping-off), microtiter plate, photometric; format: cell-based; conditions: 72 hrs
Experimental: The action to be expected E for a given active ingredient combination obeys the so-called COLBY formula and can be calculated as follows (COLBY, S. R. “Calculating synergistic and antagonistic responses of herbicide combination”. Weeds, Vol. 15, pages 20-22; 1967): If the action actually observed (O) is greater than the expected action (E), then the action of the combination is super-additive, i.e. there is a synergistic effect. Inhibiting of fungal growth of the following fungi are carried out by fungal growth assays (detailed below). Rhizoctonia solani (foot rot, damping-off): Mycelial fragments of a newly grown culture of the fungus are directly mixed into nutrient broth (PDB potato dextrose broth). After placing a (DMSO) solution of the test compounds into a microtiter plate (96-well format) the nutrient broth containing the fungal spores is added. The test plates were incubated at 24 C and the inhibition of growth is measured photometrically after 72 hrs. The fungicide interactions in the combinations are calculated according to COLBY method, where C is ipconazole and D is a mixture of tebuconazole and azoxystrobin in a mass ratio of 2:1. The results for C & D solo are shown in Table below and those for the combinations in a range of ratios in Table 2.

SMILES | Observed control in % (Pyrenophora graminea; A solo 0.004 ppm) [%] | Observed control in % (Pyrenophora graminea; A solo 0.008 ppm) [%] | Observed control in % (Pyrenophora graminea; A solo 0.016 ppm) [%] | Observed control in % (Pyrenophora graminea; A solo 0.031 ppm) [%] | Observed control in % (Pyrenophora graminea; A solo 0.063 ppm) [%] | Observed control in % (Pyrenophora graminea; A solo 0.125 ppm) [%] | Observed control in % (Pyrenophora graminea; A solo 0.25 ppm) [%] | Observed control in % (Pyrenophora graminea; A solo 0.5 ppm) [%] | Observed control in % (Pyrenophora graminea; A solo 1.0 ppm) [%] | Observed control in % (Pyrenophora graminea; A solo 2.0 ppm) [%] | Observed control in % (Rhizoctonia solani; C solo 0.004 ppm) [%] | Observed control in % (Rhizoctonia solani; C solo 0.008 ppm) [%] | Observed control in % (Rhizoctonia solani; C solo 0.016 ppm) [%] | Observed control in % (Rhizoctonia solani; C solo 0.031 ppm) [%] | Observed control in % (Rhizoctonia solani; C solo 0.063 ppm) [%] | Observed control in % (Rhizoctonia solani; C solo 0.125 ppm) [%] | Observed control in % (Rhizoctonia solani; C solo 0.25 ppm) [%] | Observed control in % (Rhizoctonia solani; C solo 0.5 ppm) [%] | Observed control in % (Rhizoctonia solani; C solo 1.0 ppm) [%] | Observed control in % (Rhizoctonia solani; C solo 2.0 ppm) [%]
c1ccc2[nH]c(-c3cscn3)nc2c1 [A, thiabendazole] | 0 | 0 | 0 | 0 | 0 | 1 | 10 | 25 | 29 | 22 |  |  |  |  |  |  |  |  |  | 
CC(C)C1CCC(Cc2ccc(Cl)cc2)C1(O)Cn1cncn1 (centres unmarked) [C, ipconazole] |  |  |  |  |  |  |  |  |  |  | 9 | 3 | 0 | 7 | 0 | 0 | 2 | 5 | 0 | 9
